ChEMBL document CHEMBL3046455, “Synthesis and pharmacological evaluation of some novel 4-isopropyl thiazole-based sulfonyl derivatives as potent antimicrobial and antitubercular agents” (Med Chem Res, 2013)
In brackets after ≈: the same amount, converted by molar mass.

Assays:
[1] = test system: Mycobacterium tuberculosis; test: Antitubercular activity against Mycobacterium tuberculosis H37Rv after 21 days by broth microdilution method; assay type: functional; settings: 504 h
Saccharomyces cerevisiae = test: Antifungal activity against Saccharomyces cerevisiae ATCC 9763 after 24 hr by broth microdilution method; assay type: functional; settings: ATCC 9763, 24 h
Escherichia coli = test: Antibacterial activity against Escherichia coli ATCC 10536 after 24 hr by broth microdilution method; assay type: functional; settings: ATCC 10536, 24 h
Candida tropicalis = test: Antifungal activity against Candida tropicalis ATCC 1369 after 24 hr by broth microdilution method; assay type: functional; settings: ATCC 1369, 24 h
Klebsiella pneumoniae = test: Antibacterial activity against Klebsiella pneumoniae ATCC 10031 after 24 hr by broth microdilution method; assay type: functional; settings: ATCC 10031, 24 h
Staphylococcus aureus = test: Antibacterial activity against Staphylococcus aureus ATCC 11632 after 24 hr by broth microdilution method; assay type: functional; settings: ATCC 11632, 24 h
Bacillus subtilis = test: Antibacterial activity against Bacillus subtilis ATCC 60511 after 24 hr by broth microdilution method; assay type: functional; settings: ATCC 60511, 24 h
Enterococcus faecalis = test: Antibacterial activity against Enterococcus faecalis ATCC 14506 after 24 hr by broth microdilution method; assay type: functional; settings: ATCC 14506, 24 h
Aspergillus niger = test: Antifungal activity against Aspergillus niger ATCC 6275 after 24 hr by broth microdilution method; assay type: functional; settings: ATCC 6275, 24 h
Pseudomonas aeruginosa = test: Antibacterial activity against Pseudomonas aeruginosa ATCC 10145 after 24 hr by broth microdilution method; assay type: functional; settings: ATCC 10145, 24 h
A549 = test: Cytotoxicity against Homo sapiens (human) A549 cells at […] by MTT assay relative to control; assay type: cell-based

Row | Structure (SMILES) | MIC [1] | MIC (Saccharomyces cerevisiae) | MIC (Escherichia coli) | MIC (Candida tropicalis) | MIC (Klebsiella pneumoniae) | MIC (Staphylococcus aureus) | MIC (Bacillus subtilis) | MIC (Enterococcus faecalis) | MIC (Aspergillus niger) | MIC (Pseudomonas aeruginosa) | Activity (A549)
1 | CC(C)c1csc(-c2nnc(S(=O)(=O)Cc3ccc(Br)cc3)n2/N=C/c2ccc(F)cc2)n1 | 8 µg/mL (≈ 14.6 µM) | 31.2 µg/mL (≈ 57 µM) | 8 µg/mL (≈ 14.6 µM) | 31.2 µg/mL (≈ 57 µM) | 8 µg/mL (≈ 14.6 µM) | 62.5 µg/mL (≈ 114 µM) | 8 µg/mL (≈ 14.6 µM) | 62.5 µg/mL (≈ 114 µM) | 125 µg/mL (≈ 228 µM) | 62.5 µg/mL (≈ 114 µM) | 
2 | CC(C)c1csc(-c2nnc(S(=O)(=O)Cc3ccc(Br)cc3F)n2/N=C/c2ccc(Cl)cc2)n1 | 8 µg/mL (≈ 13.7 µM) | 16 µg/mL (≈ 27.4 µM) | 62.5 µg/mL (≈ 107 µM) | 8 µg/mL (≈ 13.7 µM) | 31.2 µg/mL (≈ 53.6 µM) | 31.2 µg/mL (≈ 53.6 µM) | 8 µg/mL (≈ 13.7 µM) | 31.2 µg/mL (≈ 53.6 µM) | 8 µg/mL (≈ 13.7 µM) | 16 µg/mL (≈ 27.4 µM) | 
3 | CC(C)c1csc(-c2nnc(S(=O)(=O)Cc3ccc(C(F)(F)F)cc3)n2/N=C/c2ccc(Cl)cc2)n1 | 4 µg/mL (≈ 7.22 µM) | 4 µg/mL (≈ 7.22 µM) | 8 µg/mL (≈ 14.4 µM) | 8 µg/mL (≈ 14.4 µM) | 16 µg/mL (≈ 28.9 µM) | 4 µg/mL (≈ 7.22 µM) | 4 µg/mL (≈ 7.22 µM) | 8 µg/mL (≈ 14.4 µM) | 4 µg/mL (≈ 7.22 µM) | 4 µg/mL (≈ 7.22 µM) | 50%
4 | CC(C)c1csc(-c2nnc(S(=O)(=O)Cc3ccc(Cl)cc3)n2/N=C/c2ccc(Cl)cc2)n1 | 8 µg/mL (≈ 15.4 µM) | 16 µg/mL (≈ 30.7 µM) | 62.5 µg/mL (≈ 120 µM) | 8 µg/mL (≈ 15.4 µM) | 31.2 µg/mL (≈ 60 µM) | 8 µg/mL (≈ 15.4 µM) | 31.2 µg/mL (≈ 60 µM) | 8 µg/mL (≈ 15.4 µM) | 8 µg/mL (≈ 15.4 µM) | 8 µg/mL (≈ 15.4 µM) | 
5 | CC(C)c1csc(-c2nnc(S(=O)(=O)Cc3ccccc3)n2/N=C/c2c(F)cccc2F)n1 | 4 µg/mL (≈ 8.2 µM) | 8 µg/mL (≈ 16.4 µM) | 31.2 µg/mL (≈ 64.1 µM) | 16 µg/mL (≈ 32.8 µM) | 31.2 µg/mL (≈ 64.1 µM) | 4 µg/mL (≈ 8.2 µM) | 62.5 µg/mL (≈ 128 µM) | 8 µg/mL (≈ 16.4 µM) | 8 µg/mL (≈ 16.4 µM) | 4 µg/mL (≈ 8.2 µM) | 
6 | CC(C)c1csc(-c2nnc(S(=O)(=O)Cc3ccc(Cl)cc3)o2)n1 | 4 µg/mL (≈ 10.4 µM) | 8 µg/mL (≈ 20.8 µM) | 4 µg/mL (≈ 10.4 µM) | 8 µg/mL (≈ 20.8 µM) | 8 µg/mL (≈ 20.8 µM) | 16 µg/mL (≈ 41.7 µM) | 8 µg/mL (≈ 20.8 µM) | 31.2 µg/mL (≈ 81.4 µM) | 16 µg/mL (≈ 41.7 µM) | 8 µg/mL (≈ 20.8 µM) | 
7 | CC(C)c1csc(-c2nnc(S(=O)(=O)Cc3ccc(Br)cc3)o2)n1 | 4 µg/mL (≈ 9.34 µM) | 62.5 µg/mL (≈ 146 µM) | 4 µg/mL (≈ 9.34 µM) | 31.2 µg/mL (≈ 73 µM) | 8 µg/mL (≈ 18.7 µM) | 8 µg/mL (≈ 18.7 µM) | 31.2 µg/mL (≈ 73 µM) | 31.2 µg/mL (≈ 73 µM) | 31.2 µg/mL (≈ 73 µM) | 8 µg/mL (≈ 18.7 µM) | 
8 | CC(C)c1csc(-c2nnc(S(=O)(=O)Cc3ccccc3C(F)(F)F)o2)n1 | 2 µg/mL (≈ 4.79 µM) | 8 µg/mL (≈ 19.2 µM) | 8 µg/mL (≈ 19.2 µM) | 31.2 µg/mL (≈ 74.9 µM) | 2 µg/mL (≈ 4.79 µM) | 8 µg/mL (≈ 19.2 µM) | 31.2 µg/mL (≈ 74.9 µM) | 16 µg/mL (≈ 38.3 µM) | 125 µg/mL (≈ 299 µM) | 4 µg/mL (≈ 9.58 µM) | 50%
9 | CC(C)c1csc(-c2nnc(S(=O)(=O)Cc3ccccc3)o2)n1 | 4 µg/mL (≈ 11.4 µM) | 4 µg/mL (≈ 11.4 µM) | 8 µg/mL (≈ 22.9 µM) | 8 µg/mL (≈ 22.9 µM) | 8 µg/mL (≈ 22.9 µM) | 62.5 µg/mL (≈ 179 µM) | 31.2 µg/mL (≈ 89.4 µM) | 16 µg/mL (≈ 45.8 µM) | 16 µg/mL (≈ 45.8 µM) | 8 µg/mL (≈ 22.9 µM) | 
10 | CC(C)c1csc(-c2nnc(S(=O)(=O)Cc3cc(Cl)ccc3F)o2)n1 | 4 µg/mL (≈ 9.95 µM) | 16 µg/mL (≈ 39.8 µM) | 8 µg/mL (≈ 19.9 µM) | 8 µg/mL (≈ 19.9 µM) | 4 µg/mL (≈ 9.95 µM) | 8 µg/mL (≈ 19.9 µM) | 8 µg/mL (≈ 19.9 µM) | 31.2 µg/mL (≈ 77.8 µM) | 8 µg/mL (≈ 19.9 µM) | 4 µg/mL (≈ 9.95 µM) | 
11 | CC(C)c1csc(-c2nnc(S(=O)(=O)Cc3ccc(Br)cc3F)n2-c2ccccc2)n1 | 8 µg/mL (≈ 15.3 µM) | 16 µg/mL (≈ 30.7 µM) | 8 µg/mL (≈ 15.3 µM) | 31.2 µg/mL (≈ 59.9 µM) | 16 µg/mL (≈ 30.7 µM) | 31.2 µg/mL (≈ 59.9 µM) | 16 µg/mL (≈ 30.7 µM) | 31.2 µg/mL (≈ 59.9 µM) | 16 µg/mL (≈ 30.7 µM) | 16 µg/mL (≈ 30.7 µM) | 
12 | CC(C)c1csc(-c2nnc(S(=O)(=O)Cc3ccc(C(F)(F)F)cc3)n2-c2ccccc2)n1 | 4 µg/mL (≈ 8.12 µM) | 16 µg/mL (≈ 32.5 µM) | 16 µg/mL (≈ 32.5 µM) | 31.2 µg/mL (≈ 63.4 µM) | 16 µg/mL (≈ 32.5 µM) | 4 µg/mL (≈ 8.12 µM) | 8 µg/mL (≈ 16.2 µM) | 8 µg/mL (≈ 16.2 µM) | 16 µg/mL (≈ 32.5 µM) | 16 µg/mL (≈ 32.5 µM) | 
13 | CC(C)c1csc(-c2nnc(S(=O)(=O)Cc3ccc(Br)cc3)n2-c2ccccc2)n1 | 8 µg/mL (≈ 15.9 µM) | 16 µg/mL (≈ 31.8 µM) | 16 µg/mL (≈ 31.8 µM) | 16 µg/mL (≈ 31.8 µM) | 16 µg/mL (≈ 31.8 µM) | 8 µg/mL (≈ 15.9 µM) | 16 µg/mL (≈ 31.8 µM) | 16 µg/mL (≈ 31.8 µM) | 16 µg/mL (≈ 31.8 µM) | 8 µg/mL (≈ 15.9 µM) | 
